Data as given in the NIST ThermoML archive (doi:10.1016/j.jct.2019.06.026).
± gives the expanded uncertainty stated by the source.

Settings: Liquid, Ebulliometric method (Recirculating still)

OCC(F)(F)C(F)F [2,2,3,3-tetrafluoro-1-propanol]
vapor or sublimation pressure (381.95 K): 101.3 ± 3.6 kPa

CNC=O [N-methylformamide]
vapor or sublimation pressure (471.2 K): 101.3 ± 3.6 kPa

CN1CCCC1=O [N-methylpyrrolidone]
vapor or sublimation pressure (476.05 K): 101.3 ± 3.6 kPa

CN(C)C=O [dimethylformamide]
vapor or sublimation pressure (426.05 K): 101.3 ± 3.6 kPa
